From patent EP3389640B1, “PHARMACEUTICAL COMPOSITION COMPRISING ANHYDROUS DASATINIB” (Synthon B.V., priority 2015, dated 2017)
Values after ≈ are worked out from the molar mass of the structure shown. Like-named read-outs stand apart in the source and are kept apart here.

Legend:
Type in all cases: physicochemical
[1] = solubility at different pH values
Description: Table 1 gives an overview of the solubility of anhydrous dasatinib ("N-6") and dasatinib monohydrate ("H1-7") at different pH values. Table 1: solubility of anhydrous dasatinib ("N-6") and dasatinib monohydrate ("H1-7")

[2] = stability of tablets stored at 40°C/75% RH (assay and impurities); details: triacetin used as plasticizer in the coating formulation
Description: The intragranular components were blended with water in a high shear mixer. The resulting granulate was dried in a fluid bed dryer. The granulate was sieved through an appropriate mesh size sieve. Microcrystalline cellulose and croscarmellose sodium were sieved through a suitable mesh size sieve for deagglomeration. The excipients were mixed with the sieved granulate in a diffusion mixer. Magnesium stearate was sieved through an appropriate sieve to deagglomerate and mixed with the powder mix in a diffusion mixer. The homogeneous powder obtained, was compressed using a rotating tablet press using appropriate punches. Part of the tablets were coated with a water suspension of Opadry® II White 31K28459 coating until 3% weight gain (= […]). The tablets were packed in suitable packaging material and were stored at 40°C/75% RH.
Hydroxypropyl cellulose was dissolved in water and blended with the other intragranular components in a high shear mixer. The resulting granulate was dried in a fluid bed dryer. The granulate was sieved through an appropriate mesh size sieve. Microcrystalline cellulose and croscarmellose sodium were sieved through a suitable mesh size sieve for deagglomeration. The excipients were mixed with the sieved granulate in a tumbling mixer. […]

[3] = form conversion during wet granulation in water; details: during the process of granulation in water
Description: The wet granulation process is performed with a granulation solvent selected from the group consisting of water, acetone, ethanol, isopropanol or a mixture thereof.

| Compound | solubility ([1]; pH 1.2) | solubility ([1]; pH 1.2, listed as anhydrous form "N-6") | solubility ([1]; pH 4.5, aqueous buffer, pH 4.5, read-out: solubility) | solubility ([1]; pH 6.8) | reaction with the organic ester triacetin [2] | conversion into dasatinib monohydrate [3] | solubility ([1]; pH 1.2, listed as dasatinib monohydrate "H1-7") | solubility ([1]; pH 4.5) |
| --- | --- | --- | --- | --- | --- | --- | --- | --- |
| Cc1nc(Nc2ncc(C(=O)Nc3c(C)cccc3Cl)s2)cc(N2CCN(CCO)CC2)n1 [Anhydrous dasatinib ("N-6"), N-(2-chloro-6-methylphenyl)-2-[[6-[4-(2-hydroxyethyl)-1-piperazinyl]-2-methyl-4-pyrimidinyl]amino]-5-thiazolecarboxamide] | 34510 µg/mL (≈ 70700 µM) | 34510 µg/mL (≈ 70700 µM) | 179 µg/mL (≈ 367 µM) | 1.8 µg/mL (≈ 3.69 µM) | does not react | does not convert into dasatinib monohydrate |  |  |
| Cc1nc(Nc2ncc(C(=O)Nc3c(C)cccc3Cl)s2)cc(N2CCN(CCO)CC2)n1 [Dasatinib monohydrate ("H1-7"), N-(2-chloro-6-methylphenyl)-2-[[6-[4-(2-hydroxyethyl)-1-piperazinyl]-2-methyl-4-pyrimidinyl]amino]-5-thiazolecarboxamide] | 2850 µg/mL |  |  | 0.6 µg/mL |  |  | 2850 µg/mL | 134 µg/mL |
